From patent EP0391644B1, “Aryl-substituted rhodanine derivatives” (ELI LILLY AND COMPANY, priority 1989, dated 1990)
Where a name gives a salt, the structure may show the parent alone.

Test system: adjuvant-induced arthritis
Assay: Developing Adjuvant-Induced Arthritis Test in Rats
Type: in vivo, male Lewis-Wistar rats
Settings: AUC of uninjected paw volumes, Days 16 through 30; for inhibition in vivo at 50 mg/kg / inhibition in vivo at 25 mg/kg: Rattus norvegicus, po, 720 h, read-out: % Inhibition of Uninjected Paw Volume Inflammation; for inhibition in vivo at 25 mg/kg: 25 mg/kg P.O. x 29

| Compound | inhibition in vivo at 50 mg/kg (50 mg/kg P.O. x 29) [%] | also measured |
| --- | --- | --- |
| 5-{[3,5-bis(1,1-dimethylethyl)-4-hydroxyphenyl]methylene}-3-[2-(4-morpholinyl)ethyl]amino-4-thiazolidinone [Example 49] | – | % Inhibition of Uninjected Paw Volume Inflammation (50 mg/kg P.O. x 29): 36% |
| CC(C)(C)c1cc(CC2SC(=S)NC2=O)cc(C(C)(C)C)c1O (stereo not drawn) [Example 8, 5-{[3,5-bis(1,1-dimethylethyl)-4-hydroxyphenyl]methyl}-2-thioxo-4-thiazolidinone] | 4 | – |
| CN(C)N1C(=O)C(=Cc2cc(C(C)(C)C)c(O)c(C(C)(C)C)c2)SC1=S [Example 19, 5-{[3,5-bis(1,1-dimethylethyl)-4-hydroxyphenyl]methylene}-3-dimethylamino-2-thioxo-4-thiazolidinone] | 20.7 | – |
| CC(C)(C)c1cc(C=C2SCN(C3CC3)C2=O)cc(C(C)(C)C)c1O [Example 20, 5-{[3,5-bis(1,1-dimethylethyl)-4-hydroxyphenyl]methylene}-3-cyclopropyl-4-thiazolidinone] | 36 | – |
| C=CCN1CSC(=Cc2cc(C(C)(C)C)c(O)c(C(C)(C)C)c2)C1=O [Example 24, 5-{[3,5-bis(1,1-dimethylethyl)-4-hydroxyphenyl]methylene}-3-(2-propenyl)-4-thiazolidinone] | 0 | – |
| CC(=C1SCN(C)C1=O)c1cc(C(C)(C)C)c(O)c(C(C)(C)C)c1 [Example 25, 5-{[3,5-bis(1,1-dimethylethyl)-4-hydroxyphenyl]methylmethylene}-3-methyl-4-thiazolidinone] | 8.5 | – |
| CC(C)(C)c1cc(C=C2SCN(CCN)C2=O)cc(C(C)(C)C)c1O [Example 27, 5-{[3,5-bis(1,1-dimethylethyl)-4-hydroxyphenyl]methylene}-3-(2-aminoethyl)-4-thiazolidinone] | 40 | – |
| CN(C)CCN1CSC(=Cc2cc(C(C)(C)C)c(O)c(C(C)(C)C)c2)C1=O [Example 29, 5-{[3,5-bis(1,1-dimethylethyl)-4-hydroxyphenyl]methylene}-3-[2-(dimethylamino)ethyl]-4-thiazolidinone] | 49 | – |
| CC(C)(C)c1cc(C=C2SCN(CCNCCO)C2=O)cc(C(C)(C)C)c1O [Example 30, 5-{[3,5-bis(1,1-dimethylethyl)-4-hydroxyphenyl]methylene}-3-[2-(2-hydroxyethylamino)ethyl]-4-thiazolidinone] | 44.1 | – |
| C#CCN(C)CCN1CSC(=Cc2cc(C(C)(C)C)c(O)c(C(C)(C)C)c2)C1=O [Example 31, 5-{[3,5-bis(1,1-dimethylethyl)-4-hydroxyphenyl]methylene}-3-[2-(methyl-2-propynylamino)ethyl]-4-thiazolidinone] | 28.9 | – |
| CN(C)CCNCCN1CSC(=Cc2cc(C(C)(C)C)c(O)c(C(C)(C)C)c2)C1=O [Example 32, 5-{[3,5-bis(1,1-dimethylethyl)-4-hydroxyphenyl]methylene}-3-{2-[[2-(dimethylamino)ethyl]amino]-ethyl}-4-thiazolidinone] | 48.6 | – |
| CC(C)(C)c1cc(C=C2SCN(CCNCc3ccccc3)C2=O)cc(C(C)(C)C)c1O [Example 33, 5-{[3,5-bis(1,1-dimethylethyl)-4-hydroxyphenyl]methylene}-3-{2-[(phenylmethyl)amino]ethyl}-4-thiazolidinone hydrochloride] | 30.1 | – |
| CNCCCN1CSC(=Cc2cc(C(C)(C)C)c(O)c(C(C)(C)C)c2)C1=O [Example 34, 5-{[3,5-bis(1,1-dimethylethyl)-4-hydroxyphenyl]methylene}-3-[3-(methylamino)propyl]-4-thiazolidinone] | 1.6 | – |
| CC(C)(C)c1cc(C=C2SCN(Cc3nnn[nH]3)C2=O)cc(C(C)(C)C)c1O [Example 39, 5-{[3,5-bis(1,1-dimethylethyl)-4-hydroxyphenyl]methylene}-3-(1H-tetrazol-5-ylmethyl)-4-thiazolidinone] | 2 | – |
| CCN(C)N1CSC(=Cc2cc(C(C)(C)C)c(O)c(C(C)(C)C)c2)C1=O [Example 40, 5-{[3,5-bis(1,1-dimethylethyl)-4-hydroxyphenyl]methylene}-3-(ethylmethylamino)-4-thiazolidinone] | 23 | – |
| CCCCN(C)N1CSC(=Cc2cc(C(C)(C)C)c(O)c(C(C)(C)C)c2)C1=O [Example 41, 5-{[3,5-bis(1,1-dimethylethyl)-4-hydroxyphenyl]methylene}-3-(butylmethylamino)-4-thiazolidinone] | 27 | – |
| CN1CCN(N2CSC(=Cc3cc(C(C)(C)C)c(O)c(C(C)(C)C)c3)C2=O)CC1 [Example 43, 5-{[3,5-bis(1,1-dimethylethyl)-4-hydroxyphenyl]methylene}-3-(4-methyl-1-piperazinyl)-4-thiazolidinone] | 36 | – |
| CC(C)(C)c1cc(C=C2SCN(N3CCCCC3)C2=O)cc(C(C)(C)C)c1O [Example 44, 5-{[3,5-bis(1,1-dimethylethyl)-4-hydroxyphenyl]methylene}-3-(1-piperidinyl)-4-thiazolidinone] | 15 | – |

| Compound | inhibition in vivo at 50 mg/kg (50 mg/kg P.O. x 29) [%] | also measured |
| --- | --- | --- |
| CC(C)(C)c1cc(C=C2SCN(N3CCOCC3)C2=O)cc(C(C)(C)C)c1O [Example 45, 5-{[3,5-bis(1,1-dimethylethyl)-4-hydroxyphenyl]methylene}-3-(4-morpholinyl)-4-thiazolidinone] | 36 | – |
| CC(=C1SCN(N(C)C)C1=O)c1cc(C(C)(C)C)c(O)c(C(C)(C)C)c1 [Example 46, 5-{1-[3,5-bis(1,1-dimethylethyl)-4-hydroxyphenyl]methylmethylene}-3-(dimethylamino)-4-thiazolidinone] | 9 | – |
| CNN1CSC(=Cc2cc(C(C)(C)C)c(O)c(C(C)(C)C)c2)C1=O [Example 47, 5-{[3,5-bis(1,1-dimethylethyl)-4-hydroxyphenyl]methylene}-3-(methylamino)-4-thiazolidinone] | 69.3 | – |
| CC(C)(C)c1cc(C=C2SCN(N)C2=O)cc(C(C)(C)C)c1O [Example 50, 3-amino-5-{[3,5-bis(1,1-dimethylethyl)-4-hydroxyphenyl]methylene}-4-thiazolidinone] | 62 | – |
| CCCNN1CSC(=Cc2cc(C(C)(C)C)c(O)c(C(C)(C)C)c2)C1=O [Example 51, 5-{[3,5-bis(1,1-dimethylethyl)-4-hydroxyphenyl]methylene}-3-(propylamino)-4-thiazolidinone] | – | inhibition in vivo at 25 mg/kg: 39% |
| CCNN1CSC(=Cc2cc(C(C)(C)C)c(O)c(C(C)(C)C)c2)C1=O [Example 52, 5-{[3,5-bis(1,1-dimethylethyl)-4-hydroxyphenyl]methylene}-3-(ethylamino)-4-thiazolidinone] | – | inhibition in vivo at 25 mg/kg: 45% |
| CCCNCCN1CSC(=Cc2cc(C(C)(C)C)c(O)c(C(C)(C)C)c2)C1=O [Example 54, 5-{[3,5-bis(1,1-dimethylethyl)-4-hydroxyphenyl]methylene}-3-[2-(propylamino)ethyl]-4-thiazolidinone] | 37.6 | – |
| CC(C)(C)c1cc(C=C2SCN(NCCO)C2=O)cc(C(C)(C)C)c1O [Example 55, 5-{[3,5-bis(1,1-dimethylethyl)-4-hydroxyphenyl]methylene}-3-[(2-hydroxyethyl)amino]-4-thiazolidinone] | 96.2 | – |
| CCCc1cc(C=C2SCN(C)C2=O)cc(CCC)c1O [Example 56, 5-[(4-hydroxy-3,5-dipropylphenyl)methylene]-3-methyl-4-thiazolidinone] | 38.2 | – |
| CCCc1cc(C=C2SCNC2=O)cc(CCC)c1O [Example 57, 5-[(4-hydroxy-3,5-dipropylphenyl)methylene]-4-thiazolidinone] | 44.1 | – |
| Cc1cc(C=C2SCNC2=O)cc(C(C)(C)C)c1O [Example 58, 5-{[3-(1,1-dimethylethyl)-4-hydroxy-5-methylphenyl]methylene}-4-thiazolidinone] | 16.9 | – |
| Cc1cc(C=C2SCN(N)C2=O)cc(C(C)(C)C)c1O [Example 59, 3-amino-5-{[3-(1,1-dimethylethyl)-4-hydroxy-5-methylphenyl]methylene}-4-thiazolidinone] | 19.8 | – |
| Cc1cc(C=C2SC(=S)N(N(C)C)C2=O)cc(C(C)(C)C)c1O [Example 60, 5-{[3-(1,1-dimethylethyl)-4-hydroxy-5-methylphenyl]methylene}-3-dimethylamino-2-thioxo-4-thiazolidinone] | 40.6 | – |
| CC(=O)OCCCc1cc(C=C2SCN(C)C2=O)cc(CCCOC(C)=O)c1O [Example 63, 5-{[3,5-bis[3-(acetyloxy)propyl]-4-hydroxyphenyl]methylene}-3-methyl-4-thiazolidinone] | 9.8 | – |
| CC(=O)OCCCc1cc(C=C2SCN(N(C)C)C2=O)cc(CCCOC(C)=O)c1O [Example 64, 5-{[3,5-bis[3-(acetyloxy)propyl]-4-hydroxyphenyl]methylene}-3-(dimethylamino)-4-thiazolidinone] | 5.5 | – |
| CN1CSC(=Cc2ccc(O)c(C(C)(C)C)c2)C1=O [Example 66, 5-{[3-(1,1-dimethylethyl)-4-hydroxyphenyl]-methylene}-3-methyl-4-thiazolidinone] | 26.1 | – |
| Cc1cc(C=C2SCN(C)C2=O)cc(C)c1O [Example 68, 5-[(4-hydroxy-3,5-dimethylphenyl)methylene]-3-methyl-4-thiazolidinone] | 6.5 | – |
| CN1C(=O)C(=Cc2cc(C(C)(C)C)c(O)c(C(C)(C)C)c2)SC1O (stereo not drawn) [Example 71, 5-{[3,5-bis(1,1-dimethylethyl)-4-hydroxyphenyl]methylene}-2-hydroxy-3-methyl-4-thiazolidinone] | 48.2 | – |
